{"source": "patent US20210009750A1", "about": "“3D PRINTING COMPOSITION FOR BIOMATERIALS” (TISSIUM SA, priority 2018, published 2021)", "origin": "cited, not measured here", "tested_on": "mammalian cell types", "conditions": "broad range of mammalian cell types and species"}
{"smiles": "CC(C)(O)C(=O)c1ccc(OCCO)cc1", "note": "[Irgacure 2959, 2-hydroxy-1-[4-(hydroxyethoxy)phenyl]-2-methyl-1-propanone]", "values": [{"measurement": "cytotoxicity (cell death)", "value": "minimal cytotoxicity"}]}
